As a reminder, the melting point is the temperature, or range, at which the solid turns liquid. In turn, `NC(C(=O)NC(=O)C(NC(=O)Cc1cc(F)cc(F)c1)c1ccccc1)c1ccccc1` (mixture of isomers) [Example 248, N-[N-(3,5-Difluorophenylacetyl)-D,L-phenylglycinyl]-D,L-phenylglycinamide] showed a melting point of 285.5 to 288.5 °C.

Regarding `CC(C)C(NC(=O)Cc1cc(F)cc(F)c1)C(=O)NC(=O)C(N)c1ccccc1` (mixture of isomers) [Example 249, N-[N-(3,5-Difluorophenylacetyl)-D,L-valinyl]-D,L-phenylglycinamide], the melting point was in the range of 260.3 to 264.3 °C.

`CCCC[C@H](NC(=O)[C@H](C)NC(=O)Cc1cc(F)cc(F)c1)C(=O)OC` [Example 1, Methyl N-[N-(3,5-Difluorophenylacetyl)-L-alaninyl]-(S)-2-aminohexanoate] had a melting point of 142 to 143 °C.

Turning to `COC(=O)[C@H](Cc1c[nH]cn1)NC(=O)[C@H](C)NC(=O)Cc1cc(F)cc(F)c1` [Example 2, N-[N-(3,5-Difluorophenylacetyl)-L-alaninyl]-L-histidine Methyl Ester], the melting point lay within 195 to 197 °C.

As to `C=CCCC(=O)N[C@@H](C)C(=O)N[C@@H](Cc1ccccc1)C(=O)OC` [Example 11, N-[N-(Pent-4-enoyl)-L-alaninyl]-L-phenylalanine Methyl Ester], the melting point was 125.5 to 126.5 °C.

On to `CCCCCC=CCCC(=O)N[C@@H](C)C(=O)N[C@@H](Cc1ccccc1)C(=O)OC` [Example 12, N-[N-(Dec-4-enoyl)-L-alaninyl]-L-phenylalanine Methyl Ester], for which the melting point lay in the range of 115.5 to 117.5 °C.

`COC(=O)[C@H](Cc1ccc(OCCCN(C)C)cc1)NC(=O)[C@H](C)NC(=O)Cc1cc(F)cc(F)c1` [Example 13, N-[N-(3,5-Difluorophenylacetyl)-L-alaninyl]-L-4-[3-(N,N-dimethylamino)propoxy]phenylalanine Methyl Ester] gave a melting point of 153 to 155 °C.

In the case of `COC(=O)[C@H](Cc1ccc(OCC(=O)OC(C)(C)C)cc1)NC(=O)[C@H](C)NC(=O)Cc1cc(F)cc(F)c1` [Example 14, N-[N-(3,5-Difluorophenylacetyl)-L-alaninyl]-L-4-[(tert-butyloxycarbonyl)methoxy]phenylalanine Methyl Ester], the melting point lay within 116 to 119 °C.

In the case of `COC(=O)[C@H](Cc1ccc(O)cc1)NC(=O)[C@H](C)NC(=O)Cc1cc(F)cc(F)c1` [Example 15, N-[N-(3,5-Difluorophenylacetyl)-L-alaninyl]-L-tyrosine Methyl Ester], the melting point fell in the range of 85 to 88 °C.

In turn, `COC(=O)[C@H](CCCCN(C)C)NC(=O)[C@H](C)NC(=O)Cc1cc(F)cc(F)c1` [Example 18, Methyl N-[N-(3,5-Difluorophenylacetyl)-L-alaninyl]-(S)-2-amino-6-(N,N-dimethylamino)hexanoate] gave a melting point of 123 to 126 °C.

The compound `COC(=O)[C@H](Cc1cccnc1)NC(=O)[C@H](C)NC(=O)Cc1cc(F)cc(F)c1` [Example 20, Methyl N-[N-(3,5-Difluorophenylacetyl)-L-alaninyl]-(S)-2-amino-3-(3-pyridyl)propionate] yielded a melting point of 101 to 103 °C.

The compound `COCC(NC(=O)[C@H](C)NC(=O)Cc1cc(F)cc(F)c1)C(=O)OC` (stereo partly drawn) [Example 24, Methyl N-[N-(3,5-Difluorophenylacetyl)-L-alaninyl]-2-amino-3-methoxypropionate] came in with a melting point of 165 to 168 °C.

`COC(=O)CNC(=O)[C@H](C)NC(=O)Cc1cc(F)cc(F)c1` [Example 28, N-[N-(3,5-Difluorophenylacetyl)-L-alaninyl]glycine Methyl Ester] came in with a melting point of 158 to 160 °C.

`COC(=O)[C@H](Cc1cscn1)NC(=O)[C@H](C)NC(=O)Cc1cc(F)cc(F)c1` [Example 31, Methyl N-[N-(3,5-Difluorophenylacetyl)-L-alaninyl]-(S)-2-amino-3-(thiazol-4-yl)propionate] had a melting point of 136 to 139 °C.

Regarding `COC(=O)C1Cc2ccccc2CN1C(=O)[C@H](C)NC(=O)Cc1cc(F)cc(F)c1` (stereo partly drawn) [Example 32, Methyl 2-[N-(3,5-Difluorophenylacetyl)-L-alaninyl]-1,2,3,4-tetrahydroisoquinoline-3-carboxylate], the melting point lay within 37 to 40 °C.

The compound `COC(=O)[C@H](Cc1cccs1)NC(=O)[C@H](C)NC(=O)Cc1cc(F)cc(F)c1` [Example 36, Methyl N-[N-(3,5-Difluorophenylacetyl)-L-alaninyl]-(S)-2-amino-3-(2-thienyl)propionate] gave a melting point of 145 to 147 °C.

Compound `C[C@H](NC(=O)Cc1cc(F)cc(F)c1)C(=O)N[C@@H](Cc1ccccc1)C(=O)OCc1ccccc1` [Example 37, N-[N-(3,5-Difluorophenylacetyl)-L-alaninyl]-L-phenylalanine Benzyl Ester] yielded a melting point of 170 to 171 °C.

Consider `C[C@H](NC(=O)Cc1cc(F)cc(F)c1)C(=O)N[C@@H](Cc1ccccc1)C(=O)OCCCBr` [Example 38, N-[N-(3,5-Difluorophenylacetyl)-L-alaninyl]-L-phenylalanine 3-Bromopropyl Ester], for which the melting point was in the range of 138 to 142 °C.

Regarding `CC(C)C[C@H](NC(=O)[C@H](C)NC(=O)Cc1cc(F)cc(F)c1)C(=O)OC(C)(C)C` [Example 40, N-[N-(3,5-Difluorophenylacetyl)-L-alaninyl]-L-leucine tert-Butyl Ester], the melting point is 128 °C.

For `COC(=O)[C@H](CCc1ccccc1)NC(=O)[C@H](C)NC(=O)Cc1cc(F)cc(F)c1` [Example 44, Methyl N-[N-(3,5-Difluorophenylacetyl)-L-alaninyl]-(S)-2-amino-4-phenylbutanoate], the melting point fell in the range of 147 to 149.5 °C.

`C[C@H](NC(=O)Cc1cc(F)cc(F)c1)C(=O)NCC(=O)OCCc1ccccc1` [Example 45, N-[N-(3,5-Difluorophenylacetyl)-L-alaninyl]glycine 2-Phenylethyl Ester] registered a melting point of 154 to 155.2 °C.

Consider `C[C@H](NC(=O)Cc1cc(F)cc(F)c1)C(=O)NCC(=O)OCCCc1ccccc1` [Example 46, N-[N-(3,5-Difluorophenylacetyl)-L-alaninyl]glycine 3-Phenylpropyl Ester], for which the melting point stood at 137 °C.

As to `CCOC(=O)C(NC(=O)[C@H](C)NC(=O)Cc1cc(F)cc(F)c1)c1cccnc1` (stereo partly drawn) [Example 53, Ethyl N-[N-(3,5-Difluorophenylacetyl)-L-alaninyl]-2-amino-2-(3-pyridyl)acetate], the melting point lay in the range of 146 to 157 °C.

The compound `COC(=O)C(NC(=O)[C@H](C)NC(=O)Cc1cc(F)cc(F)c1)c1cccc(OC)c1` (stereo partly drawn) [Example 63, Methyl N-[N-(3,5-Difluorophenylacetyl)-L-alaninyl]-2-amino-2-(3-methoxyphenyl)acetate] registered a melting point of 163 to 170 °C.

In the case of `COC(=O)C(NC(=O)[C@H](C)NC(=O)Cc1cc(F)cc(F)c1)c1ccc(OC)cc1` (stereo partly drawn) [Example 64, Methyl N-[N-(3,5-Difluorophenylacetyl)-L-alaninyl]-2-amino-2-(4-methoxyphenyl)acetate], the melting point is 170 to 174 °C.

Turning to `CCOC(=O)C(NC(=O)[C@H](C)NC(=O)Cc1cc(F)cc(F)c1)c1ccccn1` (stereo partly drawn) [Example 65, Ethyl N-[N-(3,5-Difluorophenylacetyl)-L-alaninyl]-2-amino-2-(2-pyridyl)acetate], the melting point was in the range of 123 to 125 °C.

These data come from patent US6476263B1, “Compounds for inhibiting β-amyloid peptide release and/or its synthesis” (Elan Pharmaceuticals, Inc., priority 1996, dated 2002).
